Assay results reported in patent US9403823B2, “Protein kinase inhibitors” (ORIBASE PHARMA, priority 2012, dated 2016).
Where two headings read alike, the source gives them in different places. Marks after values point to notes of the source that are not given here.

Experiments:
BxPC-3 cell line = experiment: In vitro cell proliferation assay (MTT), BxPC-3; format: cell-based; details: Homo sapiens, read-out: EC50, anti-proliferative activity
Protocol: (§1) 2) In Vitro Cell Proliferation Assays (Table 22 to Table 35)
(§2) Cancer cell lines (5×10^3 cells per well) or HUVEC (1×10^4 cells per well) or HRMEC (1×10^4 cells per well) were distributed in 96-well plates and incubating in duplicate with escalating concentrations (10 nM to 3 μM) of compounds for 72 hr. Cell proliferation was measured using MTT (3[4,5-dimethylthiazol-2-yl]-2,5-diphenyltetrazolium bromide).

PDGFRA (PDGFR alpha) = target: T1, PDGFRA (PDGFR alpha) (Homo sapiens, UniProt P16234); experiment: In vitro kinase assay (Z'-LYTE), PDGFRA; format: biochemical; details: read-out: % of inhibition of the kinase compared to the control
T1 construct: purchased Invitrogen
How it was run: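 FRET-based Z'-LYTE coupled-enzyme assay: kinase phosphorylates a dual-fluorophore peptide, unphosphorylated peptide is protease-cleaved, and donor/acceptor emission ratio after 400 nm excitation quantifies progress. Buffer 50 mM HEPES pH 7.5, 10 mM MgCl2, 1 mM EGTA, 0.01% BRIJ-35; 1% DMSO final. Single compound concentration: 100 nM, or 10 μM for ABL and ABL T315I.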

H1975 cell line = experiment: In vitro cell proliferation assay (MTT), H1975; format: cell-based; details: Homo sapiens, read-out: EC50, anti-proliferative activity
Protocol: as §1, §2

EGFR (ErbB1) = target: T2, EGFR (ErbB1) (Homo sapiens, UniProt P00533); experiment: In vitro kinase assay (Z'-LYTE), EGFR (ErbB1); format: biochemical; details: read-out: % of inhibition of the kinase compared to the control
T2 construct: purchased Invitrogen
How it was run: (§3)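 Peptide/kinase mix and ATP (at apparent Km) were combined in kinase buffer with compound at 100 nM, or 10 μM against ABL and its T315I mutant. Non-phosphorylated peptide was then proteolytically cleaved, and donor-to-acceptor emission ratio gave the extent of phosphorylation.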

SRC = target: T3, SRC (Homo sapiens, UniProt P12931); experiment: In vitro kinase assay (Z'-LYTE), SRC; format: biochemical; details: read-out: % of inhibition of the kinase compared to the control
T3 construct: purchased Invitrogen
How it was run: as §3

A549 cell line = experiment: In vitro cell proliferation assay (MTT), A549; format: cell-based; details: Homo sapiens, read-out: EC50, anti-proliferative activity
How it was run: (§4)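 Seed cells (HRMEC 1×10^4/well; cancer lines 5×10^3/well), add compounds at escalating concentrations from 10 nM to 3 μM in duplicate, incubate 72 hr, then measure proliferation with MTT.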

KDR (VEGFR2) = target: T4, KDR (VEGFR2) (Homo sapiens, UniProt P35968); experiment: In vitro kinase assay (Z'-LYTE), KDR (VEGFR2); format: biochemical; details: read-out: % of inhibition of the kinase compared to the control
T4 construct: purchased Invitrogen
How it was run: as §3

EGFR (ErbB1) T790M L858R = target: T5, EGFR (ErbB1) T790M L858R (Homo sapiens, UniProt P00533, L858R/T790M); experiment: In vitro kinase assay (Z'-LYTE), EGFR (ErbB1) T790M L858R; format: biochemical; details: read-out: % of inhibition of the kinase compared to the control
T5 construct: purchased Invitrogen
Protocol: (§5) 1) In Vitro Kinase Assays (Table 10 to Table 21)
(§6) The inhibitory activity of the compounds on several kinases including BRAF, EGFR (ErbB1), EGFR (ErbB1) T790M L858R, FGFR2, KDR (VEGFR2), PDGFRA (PDGFR alpha), SRC and other was evaluated by Invitrogen using the Z′-LYTE® technology. Briefly, the Z′-LYTE® biochemical assay employs a fluorescence-based, coupled-enzyme format and is based on the differential sensitivity of phosphorylated and non-phosphorylated peptides to proteolytic cleavage. The peptide substrate is labeled with two fluorophores—one at each end—that make up a FRET pair. A ratiometric method, which calculates the ratio (the Emission Ratio) of donor emission to acceptor emission after excitation of the donor fluorophore at 400 nm, is used to quantitate reaction progress.
(§7) The compounds are screened in 1% DMSO (final) in the well. For 10 point titrations, 3-fold serial dilutions are conducted from the starting concentration. All Peptide/Kinase Mixtures are diluted to a 2× working concentration in the appropriate Kinase Buffer. All ATP Solutions are diluted to a 4× working concentration in Kinase Buffer (50 mM HEPES pH 7.5, 0.01% BRIJ-35, 10 mM MgCl2, 1 mM EGTA). ATP Km apparent is previously determined using a Z′-LYTE® assay.
(§8) Each compound was incubated at a concentration of 100 nM (excepted to test the activity against ABL and ABL T315I for which the compounds were incubated at a concentration of 10 μM) and the tables 10 to 21 summarize the results obtained showing the inhibitory power of a compound.

FGFR2 = target: T6, FGFR2 (Homo sapiens, UniProt P21802); experiment: In vitro kinase assay (Z'-LYTE), FGFR2; format: biochemical; details: read-out: % of inhibition of the kinase compared to the control
T6 construct: purchased Invitrogen
How it was run: as §3

BRAF = target: T7, BRAF (Homo sapiens, UniProt P15056); experiment: In vitro kinase assay (Z'-LYTE), BRAF; format: biochemical; details: read-out: % of inhibition of the kinase compared to the control
T7 construct: purchased Invitrogen
How it was run: as §3

HepG2 cell line = experiment: In vitro cell proliferation assay (MTT), HepG2; format: cell-based; details: Homo sapiens, read-out: EC50, anti-proliferative activity
How it was run: as §4

ABL T315I = target: T8, ABL T315I (Homo sapiens, UniProt P00519, T315I); experiment: In vitro kinase assay (Z'-LYTE), ABL T315I; format: biochemical; details: read-out: % of inhibition of the kinase compared to the control
T8 construct: purchased Invitrogen
Protocol: as §5, §6, §7, §8

ABL = target: T9, ABL (Homo sapiens, UniProt P00519); experiment: In vitro kinase assay (Z'-LYTE), ABL; format: biochemical; details: read-out: % of inhibition of the kinase compared to the control
T9 construct: purchased Invitrogen
Protocol: as §5, §6, §7, §8

HT29 cell line = experiment: In vitro cell proliferation assay (MTT), HT29; format: cell-based; details: Homo sapiens, read-out: EC50, anti-proliferative activity
Protocol: as §1, §2

HRMEC cells = experiment: In vitro cell proliferation assay (MTT), HRMEC; format: cell-based; details: read-out: EC50, anti-proliferative activity
Protocol: as §1, §2

HepG2 cells = experiment: Human hepatocellular carcinoma mouse model (HepG2 xenograft); format: in vivo, athymic nude male mice; details: 20 mg/kg q.d. per os for 15 consecutive days; for Anti-tumor activity (Tumor Growth Inhibition—TGI): mice, HepG2 xenograft, end of study vs vehicle
Protocol: 3) In Vivo Studies (Table 36)
Human hepatocellular carcinoma mouse model was prepared by subcutaneously implanting HepG2 cells (1×10^7 cell/mL in sterile PBS), into the right flank of athymic nude male mice (HSD, 6-7 weeks old). When the tumor volume reached approximately 200 mm^3, mice were assigned randomly to either vehicle alone or ORB compounds treatment groups (six mice per group). Mice were treated with either vehicle (PEG400) or OR0720, OR0721, OR0811 (20 mg/kg q.d.; per os for 15 consecutive days).
Tumor volumes in mm^3 were determined three times a week with a digital caliper and calculated using the following formula: Tumor Volume (mm)=length (mm)×width (mm)×width (mm)×½. Body weight was measured three times a week, and mice were observed daily for monitoring signs of stress to detect possible toxicities. One-way ANOVA was used for statistical comparisons. Data were analyzed with Prism 5.0 b (GraphPad Software) by one-way ANOVA with Bonferroni post hoc. Tumor Growth Inhibition (TGI) is calculated as the percent decrease of tumor growth at the end of the study in the ORB compounds treatment groups in comparison to the vehicle alone treatment group.

PC3 cell line = experiment: In vitro cell proliferation assay (MTT), PC3; format: cell-based; details: Homo sapiens, PC-3, 72 h; read-out: EC50, anti-proliferative activity
Protocol: as §1, §2

HUVEC = experiment: In vitro cell proliferation assay (MTT), HUVEC; format: cell-based; details: Homo sapiens, 72 h, read-out: EC50, anti-proliferative activity
How it was run: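 HUVEC cells were plated at 1×10^4 cells per well in 96-well plates and exposed in duplicate to increasing compound concentrations from 10 nM to 3 μM for 72 hr. Proliferation was then quantified with MTT (3[4,5-dimethylthiazol-2-yl]-2,5-diphenyltetrazolium bromide) to determine anti-proliferative activity.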

HuH7 cell line = experiment: In vitro cell proliferation assay (MTT), HuH7; format: cell-based; details: Homo sapiens, Huh-7, 72 h; read-out: EC50, anti-proliferative activity
Protocol: as §1, §2

Caki-2 = experiment: In vitro cell proliferation assay (MTT), Caki-2; format: cell-based; details: Homo sapiens, read-out: EC50, anti-proliferative activity
Protocol: as §1, §2

MDA-MB-231 cell line = experiment: In vitro cell proliferation assay (MTT), MDA-MB-231; format: cell-based; details: Homo sapiens, MDA-MB-231, 72 h; read-out: EC50, anti-proliferative activity
How it was run: as §4

HeLa cell line = experiment: In vitro cell proliferation assay (MTT), HeLa; format: cell-based; details: Homo sapiens, 72 h, read-out: EC50, anti-proliferative activity
Protocol: as §1, §2

HuH6 Clone 5 cell line = experiment: In vitro cell proliferation assay (MTT), HuH6 Clone 5; format: cell-based; details: read-out: EC50, anti-proliferative activity
Protocol: as §1, §2

HuCCT1 cell line = experiment: In vitro cell proliferation assay (MTT), HuCCT1; format: cell-based; details: Homo sapiens, read-out: EC50, anti-proliferative activity
Protocol: as §1, §2

T3 sequence (P12931 whole entry): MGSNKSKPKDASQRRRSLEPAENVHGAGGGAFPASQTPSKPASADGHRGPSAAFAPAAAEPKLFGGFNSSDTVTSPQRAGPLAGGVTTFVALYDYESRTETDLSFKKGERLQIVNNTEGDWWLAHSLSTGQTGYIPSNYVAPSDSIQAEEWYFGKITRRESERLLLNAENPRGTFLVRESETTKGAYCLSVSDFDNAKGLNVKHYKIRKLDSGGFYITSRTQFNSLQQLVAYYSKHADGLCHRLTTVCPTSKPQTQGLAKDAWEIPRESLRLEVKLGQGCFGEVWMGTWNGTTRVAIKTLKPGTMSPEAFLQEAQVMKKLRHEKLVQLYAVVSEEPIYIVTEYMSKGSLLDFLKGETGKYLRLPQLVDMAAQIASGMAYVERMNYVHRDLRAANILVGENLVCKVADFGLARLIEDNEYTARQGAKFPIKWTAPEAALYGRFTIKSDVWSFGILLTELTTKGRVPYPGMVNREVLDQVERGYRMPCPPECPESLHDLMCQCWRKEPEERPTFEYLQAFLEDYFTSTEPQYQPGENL
T6 sequence (P21802 22-821): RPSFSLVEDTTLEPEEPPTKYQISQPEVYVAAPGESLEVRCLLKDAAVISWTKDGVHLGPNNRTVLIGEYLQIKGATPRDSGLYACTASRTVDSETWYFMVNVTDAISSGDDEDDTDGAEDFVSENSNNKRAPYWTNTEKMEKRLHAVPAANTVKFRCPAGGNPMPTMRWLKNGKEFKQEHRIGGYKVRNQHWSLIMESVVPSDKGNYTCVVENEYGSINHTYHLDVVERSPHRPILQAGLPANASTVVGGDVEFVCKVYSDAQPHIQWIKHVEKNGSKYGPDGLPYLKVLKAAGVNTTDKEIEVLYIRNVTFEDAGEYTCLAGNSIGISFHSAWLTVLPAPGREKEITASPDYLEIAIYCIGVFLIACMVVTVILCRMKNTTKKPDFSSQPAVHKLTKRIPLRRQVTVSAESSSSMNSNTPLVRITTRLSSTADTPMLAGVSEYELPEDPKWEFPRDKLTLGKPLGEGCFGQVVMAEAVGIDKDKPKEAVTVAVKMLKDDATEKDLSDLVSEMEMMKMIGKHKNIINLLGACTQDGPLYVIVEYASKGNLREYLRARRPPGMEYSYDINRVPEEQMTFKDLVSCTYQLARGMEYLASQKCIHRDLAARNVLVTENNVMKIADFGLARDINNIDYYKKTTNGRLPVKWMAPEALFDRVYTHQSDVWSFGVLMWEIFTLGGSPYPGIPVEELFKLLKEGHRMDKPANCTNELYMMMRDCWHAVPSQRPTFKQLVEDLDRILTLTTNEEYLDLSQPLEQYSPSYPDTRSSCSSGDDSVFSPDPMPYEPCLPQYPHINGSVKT
T2 sequence (P00533 25-1210): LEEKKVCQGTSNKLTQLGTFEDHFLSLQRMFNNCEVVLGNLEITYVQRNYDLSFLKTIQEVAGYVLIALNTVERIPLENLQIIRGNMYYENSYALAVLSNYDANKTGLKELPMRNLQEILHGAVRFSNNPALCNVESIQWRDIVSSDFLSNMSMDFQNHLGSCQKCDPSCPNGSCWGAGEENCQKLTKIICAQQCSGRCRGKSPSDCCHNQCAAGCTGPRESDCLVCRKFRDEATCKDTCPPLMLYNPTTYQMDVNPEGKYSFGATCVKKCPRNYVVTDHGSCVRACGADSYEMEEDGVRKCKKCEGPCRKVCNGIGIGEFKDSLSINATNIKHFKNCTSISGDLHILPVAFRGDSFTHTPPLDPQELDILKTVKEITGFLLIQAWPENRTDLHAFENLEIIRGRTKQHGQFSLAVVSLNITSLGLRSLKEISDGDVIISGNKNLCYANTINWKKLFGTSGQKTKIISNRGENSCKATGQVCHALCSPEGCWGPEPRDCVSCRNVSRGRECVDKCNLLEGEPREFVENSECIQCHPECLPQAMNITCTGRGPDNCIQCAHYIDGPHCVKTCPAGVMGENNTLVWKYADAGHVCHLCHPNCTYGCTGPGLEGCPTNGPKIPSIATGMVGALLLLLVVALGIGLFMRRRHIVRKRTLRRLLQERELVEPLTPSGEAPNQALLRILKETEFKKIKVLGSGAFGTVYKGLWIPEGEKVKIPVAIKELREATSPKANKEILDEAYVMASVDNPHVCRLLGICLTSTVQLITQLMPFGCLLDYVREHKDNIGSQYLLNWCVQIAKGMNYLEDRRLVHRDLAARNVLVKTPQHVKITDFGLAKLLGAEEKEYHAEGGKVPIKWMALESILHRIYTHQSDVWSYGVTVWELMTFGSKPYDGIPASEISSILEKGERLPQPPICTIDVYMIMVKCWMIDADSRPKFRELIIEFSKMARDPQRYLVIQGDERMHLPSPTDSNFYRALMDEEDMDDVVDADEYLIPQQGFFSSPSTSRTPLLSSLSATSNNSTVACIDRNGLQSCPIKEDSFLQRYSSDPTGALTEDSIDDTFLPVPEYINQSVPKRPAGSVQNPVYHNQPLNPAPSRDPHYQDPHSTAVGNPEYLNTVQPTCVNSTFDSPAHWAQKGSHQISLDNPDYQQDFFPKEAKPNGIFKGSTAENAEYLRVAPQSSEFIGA
T1 sequence (P16234 24-1089): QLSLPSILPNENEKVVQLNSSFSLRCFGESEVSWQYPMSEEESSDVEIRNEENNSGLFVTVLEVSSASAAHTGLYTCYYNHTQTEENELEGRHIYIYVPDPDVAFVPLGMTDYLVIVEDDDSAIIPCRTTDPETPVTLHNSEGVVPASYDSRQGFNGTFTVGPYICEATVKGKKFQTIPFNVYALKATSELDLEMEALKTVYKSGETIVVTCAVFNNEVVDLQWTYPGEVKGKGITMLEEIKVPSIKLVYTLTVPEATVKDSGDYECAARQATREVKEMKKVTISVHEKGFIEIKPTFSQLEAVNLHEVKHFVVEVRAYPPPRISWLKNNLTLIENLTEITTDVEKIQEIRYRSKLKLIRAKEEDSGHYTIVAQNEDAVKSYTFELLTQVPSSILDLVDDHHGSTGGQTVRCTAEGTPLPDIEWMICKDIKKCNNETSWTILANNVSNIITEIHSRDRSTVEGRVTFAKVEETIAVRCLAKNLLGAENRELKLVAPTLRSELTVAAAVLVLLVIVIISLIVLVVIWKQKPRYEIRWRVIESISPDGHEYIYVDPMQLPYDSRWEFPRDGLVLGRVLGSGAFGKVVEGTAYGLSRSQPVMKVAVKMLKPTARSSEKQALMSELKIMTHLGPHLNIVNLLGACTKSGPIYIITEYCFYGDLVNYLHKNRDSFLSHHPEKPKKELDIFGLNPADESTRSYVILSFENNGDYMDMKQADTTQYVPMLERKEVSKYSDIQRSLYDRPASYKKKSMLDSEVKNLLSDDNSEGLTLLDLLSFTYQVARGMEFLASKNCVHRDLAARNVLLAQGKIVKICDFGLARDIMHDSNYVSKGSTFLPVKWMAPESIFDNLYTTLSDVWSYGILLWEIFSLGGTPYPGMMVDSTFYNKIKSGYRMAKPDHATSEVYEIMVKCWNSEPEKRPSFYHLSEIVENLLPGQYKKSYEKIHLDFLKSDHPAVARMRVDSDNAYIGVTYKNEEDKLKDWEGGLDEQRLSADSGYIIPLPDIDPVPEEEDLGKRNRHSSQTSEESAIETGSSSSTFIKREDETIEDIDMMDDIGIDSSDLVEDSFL
T5 sequence (P00533 25-1210 T790M/L858R): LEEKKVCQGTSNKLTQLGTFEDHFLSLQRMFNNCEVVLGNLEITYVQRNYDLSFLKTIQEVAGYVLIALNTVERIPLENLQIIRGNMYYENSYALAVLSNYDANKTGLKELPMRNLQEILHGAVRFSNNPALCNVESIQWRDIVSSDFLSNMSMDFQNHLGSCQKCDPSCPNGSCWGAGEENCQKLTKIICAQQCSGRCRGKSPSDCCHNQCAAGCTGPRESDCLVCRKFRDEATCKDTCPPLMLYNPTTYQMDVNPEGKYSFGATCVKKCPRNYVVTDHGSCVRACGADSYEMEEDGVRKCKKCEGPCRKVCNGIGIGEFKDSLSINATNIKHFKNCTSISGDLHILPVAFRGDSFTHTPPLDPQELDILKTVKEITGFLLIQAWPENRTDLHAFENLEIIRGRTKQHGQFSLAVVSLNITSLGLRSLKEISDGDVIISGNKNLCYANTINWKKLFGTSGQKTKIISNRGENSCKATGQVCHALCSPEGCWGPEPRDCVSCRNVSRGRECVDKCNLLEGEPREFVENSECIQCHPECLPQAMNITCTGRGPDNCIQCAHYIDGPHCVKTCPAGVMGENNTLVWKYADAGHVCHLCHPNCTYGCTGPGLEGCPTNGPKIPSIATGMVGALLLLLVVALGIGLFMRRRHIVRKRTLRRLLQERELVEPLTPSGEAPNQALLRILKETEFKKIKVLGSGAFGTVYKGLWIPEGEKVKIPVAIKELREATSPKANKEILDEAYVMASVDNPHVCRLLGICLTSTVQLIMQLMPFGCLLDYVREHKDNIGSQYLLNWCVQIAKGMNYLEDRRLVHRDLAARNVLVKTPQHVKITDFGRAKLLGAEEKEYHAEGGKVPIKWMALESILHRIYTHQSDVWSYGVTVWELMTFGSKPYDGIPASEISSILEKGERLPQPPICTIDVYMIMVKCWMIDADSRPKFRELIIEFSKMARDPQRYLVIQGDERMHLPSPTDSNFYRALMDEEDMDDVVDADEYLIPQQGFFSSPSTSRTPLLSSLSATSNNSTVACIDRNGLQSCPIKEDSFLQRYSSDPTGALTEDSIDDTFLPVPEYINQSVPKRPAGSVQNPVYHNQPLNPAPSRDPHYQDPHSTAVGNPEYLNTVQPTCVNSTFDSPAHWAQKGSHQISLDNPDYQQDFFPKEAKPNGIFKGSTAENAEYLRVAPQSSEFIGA

inhibition at 0.1 µM (PDGFRA (PDGFR alpha)) | EC50 (H1975 cell line; NCI-H1975, H1975, 72 hr, MTT) | inhibition at 0.1 µM (EGFR (ErbB1)) | inhibition at 0.1 µM (SRC) | EC50 (A549 cell line; A549, 72 hr, MTT) | inhibition at 0.1 µM (KDR (VEGFR2)) | inhibition at 0.1 µM (EGFR (ErbB1) T790M L858R) | inhibition at 0.1 µM (FGFR2) | inhibition at 0.1 µM (BRAF) | EC50 (HT29 cell line; HT-29, HT29, 72 hr, MTT) | EC50 (BxPC-3 cell line; BXPC-3, 72 h) | EC50 (PC3 cell line) | EC50 (A549 cell line; A549, 72 h) | EC50 (HuH7 cell line) | EC50 (HepG2 cell line; HepG2, 72 h) | EC50 (MDA-MB-231 cell line) | SMILES | EC50 (HRMEC cells; 72 h) | tumor growth in xenografted mice bearing human hepatocellular carcinoma tumors (HepG2 cells) | Anti-tumor activity (Tumor Growth Inhibition—TGI) (HepG2 cells) | EC50 (HUVEC) | other results
≥ 50% | ≥ 1 µM | ≥ 50% | ≥ 50% | ≥ 1 µM | ≥ 50% | ≥ 50% | ≥ 50% | < 50% | ≥ 1 µM |  |  |  |  |  |  | Cc1ccc(NC(=O)c2ccc(CN3CCC(N(C)C)C3)c(C(F)(F)F)c2)cc1CNc1cnc2[nH]c(C(=O)O)cc2c1 (stereo not drawn) [OR0528, 5-{5-[4-(3-Dimethylamino-pyrrolidin-1-ylmethyl)-3-trifluoromethyl-benzoylamino]-2-methyl-benzylamino}-1H-pyrrolo[2,3-b]pyridine-2-carboxylic acid] |  |  |  |  | EC50 (BxPC-3 cell line; BxPC-3, 72 hr, MTT): ≥ 1 µM; EC50 (HepG2 cell line; HepG2, 72 hr, MTT): ≥ 1 µM; inhibition at 10 µM (ABL T315I): ≥ 50%; inhibition at 10 µM (ABL): ≥ 50%
 | ≥ 1 µM | ≥ 50% |  |  | ≥ 50% |  | ≥ 50% | ≥ 50% |  | 0.1 to 1 µM | 0.1 to 1 µM | 0.1 to 1 µM | 0.1 to 1 µM | ≤ 0.1 µM | 0.1 to 1 µM | CC(=O)c1cc2cc(NCc3cc(NC(=O)c4ccc(CN5CC[C@H](N(C)C)C5)c(C(F)(F)F)c4)ccc3C)cnc2[nH]1 [OR0811, N-{3-[(2-Acetyl-1H-pyrrolo[2,3-b]pyridin-5-ylamino)-methyl]-4-methyl-phenyl}-4-((S)-3-dimethylamino-pyrrolidin-1-ylmethyl)-3-trifluoromethyl-benzamide] | 0.1 to 1 µM | significantly induced a decrease of tumor growth | 75%* | 0.1 to 1 µM | EC50 (Caki-2; CAKI-2, 72 h): 0.1 to 1 µM; EC50 (HT29 cell line; HT-29, 72 h): 0.1 to 1 µM
≥ 50% |  | ≥ 50% | ≥ 50% |  | ≥ 50% | ≥ 50% | ≥ 50% | ≥ 50% |  | ≤ 0.1 µM |  | 0.1 to 1 µM | 0.1 to 1 µM | 0.1 to 1 µM | ≤ 0.1 µM | CC(=O)c1cc2cc(NCc3cc(NC(=O)c4ccc(CN5CCC(N(C)C)C5)c(C(F)(F)F)c4)ccc3C)cnc2[nH]1 (stereo not drawn) [OR0718, N-{3-[(2-Acetyl-1H-pyrrolo[2,3-b]pyridin-5-ylamino)-methyl]-4-methyl-phenyl}-4-(3-dimethylamino-pyrrolidin-1-ylmethyl)-3-trifluoromethyl-benzamide] | 0.1 to 1 µM |  |  | ≤ 0.1 µM | EC50 (HeLa cell line): 0.1 to 1 µM; EC50 (H1975 cell line; NCI-H1975, 72 h): 0.1 to 1 µM; EC50 (HuH6 Clone 5 cell line; HUH-6-clone5, 72 h): 0.1 to 1 µM; EC50 (HuCCT1 cell line; HuCCT-1, 72 h): 0.1 to 1 µM; EC50 (HT29 cell line; HT-29, 72 h): 0.1 to 1 µM
≥ 50% | ≥ 1 µM | < 50% | ≥ 50% | ≥ 1 µM | ≥ 50% | < 50% | < 50% | ≥ 50% | ≥ 1 µM | 0.1 to 1 µM | 0.1 to 1 µM |  | 0.1 to 1 µM | ≤ 0.1 µM | 0.1 to 1 µM | CC(=O)c1cc2cc(NCc3cc(NC(=O)c4cncc(C(F)(F)F)c4)ccc3C)cnc2[nH]1 [OR0721, N-{3-[(2-Acetyl-1H-pyrrolo[2,3-b]pyridin-5-ylamino)-methyl]-4-methyl-phenyl}-5-trifluoromethyl-nicotinamide] |  | significantly induced a decrease of tumor growth | 54%* | 0.1 to 1 µM | EC50 (HRMEC cells; 72 hr, MTT): ≥ 1 µM; EC50 (HuH6 Clone 5 cell line; HUH-6-clone5, HuH6 Clone 5, 72 hr, MTT): ≥ 1 µM; EC50 (HuCCT1 cell line; HuCCT-1, HuCCT1, 72 hr, MTT): ≥ 1 µM; EC50 (Caki-2; Caki-2, 72 hr, MTT): ≥ 1 µM
